# Data as given in paper PMC6264179, “Triterpenoids from the Roots of Sanguisorba tenuifolia var. Alba” (Molecules, 2011).
# Molecular target: α-Glucosidase (EC.3.2.1.20)
# Assay: α-Glucosidase inhibition assay (p-nitrophenyl-α-D-glucopyranoside substrate, absorbance at 405 nm)
# Format: biochemical
# Conditions: in vitro; pH 6.8 phosphate buffer, 37 °C, 15 min; acarbose positive control; read-out: IC50 (mM ± SEM, mM), α-glucosidase inhibitory activity
# Experimental: Open column chromatography (CC) was carried out using silica gel (200-300 mesh, Qingdao Marine Chemical Co., Qingdao, China) or octadecyl silica gel (ODS, 25-40 μm, Fuji) as stationary phases. TLC employed precoated silica gel plates (5-7 μm, Qingdao Marine). Preparative HPLC was carried out on a Waters 600 instument equipped with a Waters UV-2487 detector. A Waters Sunfire prep C18 OBD (19 × 250 mm i.d.) column was used for this purpose. The IR spectra were recorded as KBr pellets on a Jasco 302-A spectrometer. Optical rotation was recorded on a Jasco P-2000 polarimeter. HRESIMS were measured on a FTMS-7 instrument (Bruker Daltonics). Melting points were determined on a Gallenkemp apparatus and are uncorrected. The ^1H-, ^13C- and 2D (^1H-^1H COSY, HSQC, HMBC, NOESY) NMR spectra were recorded on a Bruker AMX-400 spectrometer using standard pulse sequences. Chemical shifts are reported in ppm (δ), and scalar coupling are reported in Hz. GC analyses were carried out using a Fuli 9790 instrument equipped with a DM-5 column (0.25 μm, 30 m × 0.25 mm, Dikma, China). α-Glucosidase (EC.3.2.1.20) from Saccharomyces sp. was purchased from Wako Pure Chemical Indutries Ltd. (Wako 076-02841). Other reagents were purchased from various commercial sources.
# α-Glucosidase (EC.3.2.1.20) enzyme inhibition assay has been performed according to the literature. α-Glucosidase (25 μL, 0.2 U/mL), various concentrations of samples (25 μL), and 67 mM phosphate buffer (pH 6.8, 175 μL) were mixed at room temperature for 10 min. Reactions were initiated by the addition of 23.2 mM p-nitrophenyl-α-D-glucopyranoside (25 μL). The reaction mixtures were incubated at 37 °C for 15 min in a final volume of 250 μL, and then 1 M Na2CO3 (50 μL) was added to the incubation solution to stop the reaction. The activities of glucosidase were detected in a 96-well plate, and the absorbance was read at 405 nm by a microplate spectrophotometer (Spectra Max, Molecular Devices, USA). The negative control was prepared by adding phosphate buffer instead of the sample in the same way as the test. […] The blank was prepared by adding phosphate buffer instead of α-glucosidase using the same method. The inhibition rates (%) were calculated from the following formula:
# [(ODnegative control− ODblank) − (ODtest− ODtest blank)] / ([…]− ODblank) × 100%
row,Structure (SMILES),IC50 [mM]
1,"CC1(C)CCC2(C(=O)OC3OC(CO)C(O)C(O)C3O)CCC3(C)C(=CCC4C5(C)CC(=O)C(O)C(C)(C)C5CCC43C)C2C1O [Compound 1, 2-oxo-3β,19α-dihydroxyolean-12-en-28-oic acid β-D-gluco-pyranosyl ester]",1.88 ± 0.28
2,"C[C@@H]1CC[C@]2(C(=O)O)CC[C@]3(C)C(=CCC4[C@@]5(C)CC(=O)[C@H](O)C(C)(C)C5CC[C@]43C)C2[C@@]1(C)O (some centres unmarked) [Compound 2, 2-oxopomolic acid]",1.35 ± 0.04
3,"C[C@@H]1CC[C@]2(C(=O)O[C@@H]3O[C@H](CO)[C@@H](O)[C@H](O)[C@H]3O)CC[C@]3(C)C(=CCC4[C@@]5(C)CC(=O)[C@H](O)C(C)(C)C5CC[C@]43C)C2[C@@]1(C)O (stereo partly drawn) [Compound 3, 2-oxopomolic acid β-D-glucopyranoside]",2.22 ± 0.06
4,"CC1CCC2(C(=O)OC3OC(CO)C(O)C(O)C3O)CCC3(C)C(=CCC4C5(C)CC(O)C(=O)C(C)(C)C5CCC43C)C2C1(C)O [Compound 4, 2α,19α-dihydroxy-3-oxo-12-ursen-28-oic acid β-D-glucopyranosyl ester]",1.56 ± 0.04
5,"C[C@@H]1CC[C@]2(C(=O)O)CC[C@]3(C)C(=CCC4[C@@]5(C)C[C@@H](O)C(=O)C(C)(C)C5CC[C@]43C)C2[C@@]1(C)O (stereo partly drawn) [Compound 5, 2α,19α-dihydroxy-3-oxo-12-ursen-28-oic acid]",1.23 ± 0.09
6,"CC1(C)C(=O)[C@H](O)C[C@@]2(C)C1CC[C@]1(C)C2CC=C2C3[C@@H](O)C(C)(C)CC[C@]3(C(=O)O[C@@H]3O[C@H](CO)[C@@H](O)[C@H](O)[C@H]3O)CC[C@]21C (stereo partly drawn) [Compound 6, 2α,19α-dihydroxy-3-oxo-olean-12-en-28-oic acid β-D-glucopyranosyl ester]",2.01 ± 0.06
7,"C[C@@H]1CC[C@]2(C(=O)O[C@@H]3O[C@H](CO)[C@@H](O)[C@H](O)[C@H]3O)CC[C@]3(C)C(=CCC4[C@@]5(C)C[C@@H](O)[C@H](O)C(C)(C)C5CC[C@]43C)C2[C@@]1(C)O (some centres unmarked) [Compound 7, rosamutin]",3.28 ± 0.08
8,"C[C@@H]1CC[C@]2(C(=O)O)CC[C@]3(C)C(=CC[C@@H]4[C@@]5(C)C[C@@H](O)[C@@H](O)C(C)(C)[C@@H]5CC[C@]43C)[C@@H]2[C@]1(C)O [Compound 8, euscaphic acid]",0.67 ± 0.09
9,"C[C@@H]1CC[C@]2(C(=O)O[C@@H]3O[C@H](CO)[C@@H](O)[C@H](O)[C@H]3O)CC[C@]3(C)C(=CCC4[C@@]5(C)C[C@@H](O)[C@@H](O)C(C)(C)C5CC[C@]43C)C2[C@@]1(C)O (some centres unmarked) [Compound 9, kaji-ichigoside Fl]",3.1 ± 0.24
10,"CC1(C)CC[C@]2(C(=O)O[C@@H]3O[C@H](CO)[C@@H](O)[C@H](O)[C@H]3O)CC[C@]3(C)C(=CCC4[C@@]5(C)C[C@@H](O)[C@H](O)C(C)(C)C5CC[C@]43C)C2[C@H]1O (some centres unmarked) [Compound 10, 24-deoxysericoside]",3.52 ± 0.16
11,"C[C@@H]1CC[C@]2(C(=O)O)CC[C@]3(C)C(=CCC4[C@@]5(C)CC[C@H](OC(=O)C=Cc6ccc(O)cc6)C(C)(C)C5CC[C@]43C)C2[C@@H]1C (some centres unmarked) [Compound 12, p-coumaroylursolic acid]",0.62 ± 0.06
12,"CC1CCC2(C(=O)OC3OC(CO)C(O)C(O)C3O)CCC3(C)C(=CCC4C5(C)CCC(OC6OCC(O)C(O)C6O)C(C)(C)C5CCC43C)C2C1(C)O (centres unmarked) [Compound 13, ziyu-glycoside I]",3.62 ± 0.21
13,"C=C1C(C)CCC2(C(=O)OC3OC(CO)C(O)C(O)C3O)CCC3(C)C(=CCC4C5(C)CCC(OC6OCC(O)C(O)C6O)C(C)(C)C5CCC43C)C12 [Compound 14, 3β-[(α-L-arabinopyranosyl)oxy] urs-12,19(29)-dien-28-oic acid 28-β-D-glucopyranosyl ester]",2.87 ± 0.06
14,"C[C@@H]1CC[C@]2(C(=O)O)CC[C@]3(C)C(=CC[C@@H]4[C@@]5(C)CC[C@H](O)C(C)(C)[C@@H]5CC[C@]43C)[C@@H]2[C@]1(C)O [Compound 15, pomolic acid]",1.84 ± 0.12
